From US20240041042A1, “1-(PYRIDYL)-5-AZINYLPYRAZOLE DERIVATIVES, AND THEIR USE FOR CONTROL OF UNDESIRED PLANT GROWTH” (Bayer Aktiengesellschaft, priority 2020, published 2024)
Like-named read-outs stand apart in the source and are kept apart here. Each block holds one compound with its values, some of them ahead of it.

Legend:
Type in all cases: in vivo
[1] = system: Abutilon theophrasti (ABUTH); assay: Pre-emergence herbicidal action against ABUTH; details: Dosage column 320 g/ha (title prints 3200 g/ha); scored visually after about 3 weeks; 100% = plants have died
Source text: Seeds of monocotyledonous and dicotyledonous weed plants and crop plants are placed in plastic or organic planting pots and covered with soil. The compounds of the invention, formulated in the form of wettable powders (WP) or as emulsion concentrates (EC), are then applied to the surface of the covering soil as aqueous suspension or emulsion with addition of 0.5% additive at a water application rate equivalent to 600 l/ha. After the treatment, the pots are placed in a greenhouse and kept under good growth conditions for the trial plants. After about 3 weeks, the effect of the preparations is scored visually in comparison with untreated controls as percentages. For example, 100% activity=the plants have died, 0% activity=like control plants.
Tables A1 to A13 below show the effects of selected compounds of the general formula (I) on various harmful plants and at an application rate corresponding to 320 g/ha or lower, which were obtained by the experimental procedure mentioned above. The appendices “a”, “b” and “c” give differentiation by dosage used with otherwise the same harmful plants tested.

[2] = system: Alopecurus myosuroides (ALOMY); assay: Pre-emergence herbicidal action against ALOMY; details: scored visually after about 3 weeks, 100% = plants have died
Method in brief: (§1)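 Dosages of 320 g/ha or less; pre-emergence; WP or EC in aqueous spray, 0.5% additive, 600 l/ha; greenhouse; visual % effect after ~3 wk relative to control pots.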

[3] = system: Amaranthus retroflexus (AMARE); assay: Pre-emergence herbicidal action against AMARE; details: visual scoring after about 3 weeks vs untreated controls
Method in brief: as §1

[4] = system: Avena fatua (AVEFA); assay: Pre-emergence herbicidal action against AVEFA; details: visual scoring after about 3 weeks vs untreated controls
Method in brief: as §1

[5] = system: Echinochloa crus-galli (ECHCG); assay: Pre-emergence herbicidal action against ECHCG; details: dosage 320 g/ha
Method in brief: as §1

[6] = system: Lolium rigidum (LOLRI); assay: Pre-emergence herbicidal action against LOLRI
Method in brief: as §1

[7] = system: Matricaria inodora (MATIN); assay: Pre-emergence herbicidal action against MATIN; details: dosage 320 g/ha
Method in brief: as §1

[8] = system: Pharbitis purpurea (PHBPU); assay: Pre-emergence herbicidal action against PHBPU; details: dosage 320 g/ha
Method in brief: as §1

[9] = system: Polygonum convolvulus (POLCO); assay: Pre-emergence herbicidal action against POLCO
Method in brief: as §1

[10] = system: Setaria viridis (SETVI); assay: Pre-emergence herbicidal action against SETVI
Method in brief: as §1

[11] = system: Verconica persica (VERPE); assay: Pre-emergence herbicidal action against VERPE
Method in brief: as §1

[12] = system: Viola tricolor (VIOTR); assay: Pre-emergence herbicidal action against VIOTR
Method in brief: as §1

[13] = system: Alopecurus myosuroides (ALOMY); assay: Post-emergence herbicidal action against ALOMY; details: visual rating about 3 weeks after treatment vs untreated controls (100% = plants have died, 0% = like control plants)
Method in brief: (§2)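 Rates were 320 g/ha or below, applied as aqueous WP/EC spray with 0.5% additive (600 l/ha) onto one-leaf-stage plants. About 3 weeks later in the greenhouse, damage was scored visually against untreated plants on a 0–100% scale, where 100% means plants died.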

[14] = system: Avena fatua (AVEFA); assay: Post-emergence herbicidal action against AVEFA; details: visual rating about 3 weeks after treatment
Method in brief: as §2

[15] = system: Lolium rigidum (LOLRI); assay: Post-emergence herbicidal action against LOLRI
Method in brief: as §2

[16] = system: Setaria viridis (SETVI); assay: Post-emergence herbicidal action against SETVI
Method in brief: as §2

[17] = system: Verconica persica (VERPE); assay: Post-emergence herbicidal action against VERPE
Method in brief: as §2

[18] = system: Oryza sativa (ORYSA); details: crop plant compatibility
Method in brief: (§3)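 Visual rating (% effect vs. untreated plants; 100% = plant death) made about 3 weeks after treatment. Plants had been sprayed at one-leaf stage, 2–3 weeks post-sowing, with aqueous WP/EC preparations containing 0.5% additive, 600 l/ha water volume; a, b, c mark dose levels.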

[19] = system: Zea mays (ZEAMX); details: for Post-emergence action against ZEAMX in %: crop plant compatibility, 80 g/ha, effect vs untreated controls
Method in brief: as §3

[20] = system: Abutilon theophrasti (ABUTH); assay: Post-emergence herbicidal action against ABUTH; details: visual rating about 3 weeks after treatment vs untreated controls (100% = plants have died, 0% = like control plants)
Method in brief: as §2

[21] = system: Amaranthus retroflexus (AMARE); assay: Post-emergence herbicidal action against AMARE
Method in brief: as §2

[22] = system: Echinochloa crus-galli (ECHCG); assay: Post-emergence herbicidal action against ECHCG
Method in brief: as §2

[23] = system: Pharbitis purpurea (PHBPU); assay: Post-emergence herbicidal action against PHBPU; details: dosage 320 g/ha
Method in brief: as §2

[24] = system: Polygonum convolvulus (POLCO); assay: Post-emergence herbicidal action against POLCO
Method in brief: as §2

[25] = system: Viola tricolor (VIOTR); assay: Post-emergence herbicidal action against VIOTR
Method in brief: as §2

- Post-emergence action against ORYSA in % ([18]; 20 g/ha, effect vs untreated controls): 0%
- Post-emergence action against ORYSA in % ([18]; 80 g/ha, effect in comparison to untreated controls): 10%
- Post-emergence action against ZEAMX in % (crop plant compatibility) ([19]; 20 g/ha, ZEAMX, effect in comparison to untreated controls): 0%
- Post-emergence action against ZEAMX in % [19]: 10%
SMILES: C[C@@H](Oc1nn(-c2ncccc2F)c(-c2ccc(F)nc2)c1Br)C(=O)OCc1ccccn1 [Example I-52]
- Pre-emergence action against ABUTH [1]: 80%
- Pre-emergence action against ALOMY ([2]; 80 g/ha): 90%
- Pre-emergence action against ALOMY ([2]; 320 g/ha): 100%
- Pre-emergence action against AMARE in % ([3]; 80 g/ha): 80%
- Pre-emergence action against AMARE in % ([3]; 320 g/ha): 100%
- Pre-emergence action against AVEFA in % ([4]; 80 g/ha): 90%
- Pre-emergence action against AVEFA in % ([4]; 320 g/ha): 100%
- Pre-emergence action against ECHCG in % [5]: 100%
- Pre-emergence action against LOLRI in % ([6]; dosage 80 g/ha): 90%
- Pre-emergence action against LOLRI in % ([6]; dosage 320 g/ha): 100%
- Pre-emergence action against MATIN in % [7]: 90%
- Pre-emergence action against PHBPU in % [8]: 90%
- Pre-emergence action against POLCO in % ([9]; dosage 320 g/ha): 90%
- Pre-emergence action against SETVI in % ([10]; dosage 320 g/ha): 100%
- Pre-emergence action against VERPE in % ([11]; dosage 80 g/ha): 80%
- Pre-emergence action against VERPE in % ([11]; dosage 320 g/ha): 100%
- Pre-emergence action against VIOTR in % ([12]; 320 g/ha, Viola tricolor): 100%
- Pre-emergence action against VIOTR in % ([12]; dosage 80 g/ha): 100%
- Post-emergence action against ALOMY in % ([13]; 80 g/ha): 90%
- Post-emergence action against AVEFA in % ([14]; 80 g/ha): 90%
- Post-emergence action against LOLRI in % ([15]; dosage 80 g/ha): 80%
- Post-emergence action against SETVI in % ([16]; dosage 80 g/ha): 80%
- Post-emergence action against VERPE in % ([17]; dosage 80 g/ha): 90%

- Post-emergence action against ZEAMX in % [19]: 20%
SMILES: CCOC(=O)CNC(=O)COc1nn(-c2ncccc2F)c(-c2ccc(OC)nc2)c1Br [Example I-48]
- Pre-emergence action against ABUTH [1]: 80%
- Pre-emergence action against ALOMY ([2]; 80 g/ha): 80%
- Pre-emergence action against ALOMY ([2]; 320 g/ha): 100%
- Pre-emergence action against AMARE in % ([3]; 80 g/ha): 90%
- Pre-emergence action against AMARE in % ([3]; 320 g/ha): 100%
- Pre-emergence action against AVEFA in % ([4]; 320 g/ha): 100%
- Pre-emergence action against ECHCG in % [5]: 100%
- Pre-emergence action against LOLRI in % ([6]; dosage 80 g/ha): 100%
- Pre-emergence action against LOLRI in % ([6]; dosage 320 g/ha): 100%
- Pre-emergence action against MATIN in % [7]: 100%
- Pre-emergence action against POLCO in % ([9]; dosage 80 g/ha): 90%
- Pre-emergence action against POLCO in % ([9]; dosage 320 g/ha): 90%
- Pre-emergence action against SETVI in % ([10]; dosage 80 g/ha): 100%
- Pre-emergence action against SETVI in % ([10]; dosage 320 g/ha): 100%
- Pre-emergence action against VERPE in % ([11]; dosage 320 g/ha): 100%
- Pre-emergence action against VIOTR in % ([12]; 320 g/ha, Viola tricolor): 100%
- Pre-emergence action against VIOTR in % ([12]; dosage 80 g/ha): 100%
- Post-emergence action against ABUTH in % ([20]; 80 g/ha): 90%
- Post-emergence action against ABUTH in % ([20]; 320 g/ha): 90%
- Post-emergence action against ALOMY in % ([13]; 80 g/ha): 100%
- Post-emergence action against ALOMY in % ([13]; 320 g/ha): 100%
- Post-emergence action against AMARE in % ([21]; 80 g/ha, visual rating about 3 weeks after treatment vs untreated controls (100% = plants have died, 0% = like control plants)): 80%
- Post-emergence action against AMARE in % ([21]; 320 g/ha, visual rating about 3 weeks after treatment): 80%
- Post-emergence action against AVEFA in % ([14]; 320 g/ha): 100%
- Post-emergence action against ECHCG in % ([22]; dosage 80 g/ha): 80%
- Post-emergence action against ECHCG in % ([22]; dosage 320 g/ha): 90%
- Post-emergence action against LOLRI in % ([15]; dosage 320 g/ha): 80%
- Post-emergence action against PHBPU in % [23]: 90%
- Post-emergence action against POLCO in % ([24]; dosage 80 g/ha): 80%
- Post-emergence action against POLCO in % ([24]; dosage 320 g/ha): 90%
- Post-emergence action against SETVI in % ([16]; dosage 80 g/ha): 80%
- Post-emergence action against SETVI in % ([16]; dosage 320 g/ha): 80%
- Post-emergence action against VERPE in % ([17]; 320 g/ha, VERPE): 90%
- Post-emergence action against VERPE in % ([17]; dosage 80 g/ha): 90%
- Post-emergence action against VIOTR in % ([25]; 80 g/ha): 80%
- Post-emergence action against VIOTR in % ([25]; 320 g/ha): 90%
